From patent US4400378A, “Pharmaceutical composition for the treatment of glaucoma” (priority 1981, dated 1983)
Counter-ions that a name gives are not always drawn.

Experiments:
[1] = Oral acute toxicity (LD50) in the mouse; conditions: in vivo
Text: Furthermore, the compounds of the formula I and their non-toxic, pharmacologically acceptable acid addition salts show good compatibility.

intraocular pressure = test: Intraocular pressure in rabbits after topical application to the eye (tonometric, Alcon Applanation Pneumotonograph); type: in vivo, white New Zealand rabbits; conditions: 2 drops (50 μl) per eye, rabbit
Protocol: B=2-Amino-6-allyl-5,6,7,8-tetrahydro-4H-thiazolo[4,5-d]azepine dihydrochloride. The tests were performed on white New Zealand rabbits of both sexes having a body weight of 2.5 to 3 kg. Each rabbit was used for 4 tests at intervals of at least 3 days between tests.
The intraocular pressure was measured tonometrically with an Alcon Applanation Pneumotonograph (APTG) calibrated for the human eye. By means of a factor obtained by comparison of the manometric values and APTG values in rabbits anesthetized with urethane, the so-called real pressures were determined. Moreover, before each measurement the cornea was anesthetized with 20 μl of an 0.05% oxybuprocain [2-(diethylamino)-ethyl-4-amino-3-butoxy-benzoate] solution.
The test compound was dropped at different concentrations directly into each eye, 2 drops (50 μl) per eye.

Row | SMILES | LD50 [1] | Reduction of the intraocular pressure in % after one hour (intraocular pressure; 0.3% concentration) | Reduction of the intraocular pressure in % after one hour (intraocular pressure; 1.0% concentration) | Reduction of the intraocular pressure in % after one hour (intraocular pressure; 3.0% concentration) | Values of the intraocular pressure in mmHg after one hour (intraocular pressure; 0.01% concentration) | Values of the intraocular pressure in mmHg after one hour (intraocular pressure; 0.03% concentration) | Values of the intraocular pressure in mmHg after one hour (intraocular pressure; concentration 0.3 (% not given)) | Values of the intraocular pressure in mmHg after one hour (intraocular pressure; concentration 1.0 (% not given))
1 | CCN1CCc2nc(N)oc2CC1 [Compound A, 2-Amino-6-ethyl-5,6,7,8-tetrahydro-4H-oxoazolo[4,5-d]azepine dihydrochloride] | 2.21 mg/kg | -15% | -21% | -32% |  |  |  | 
2 | C=CCN1CCc2nc(N)sc2CC1.Cl.Cl [Compound B, 2-Amino-6-allyl-5,6,7,8-tetrahydro-4H-thiazolo[4,5-d]azepine dihydrochloride] | 455 mg/kg |  |  |  | 15 mmHg | 14.5 mmHg | 13 mmHg | 10 mmHg
